The values below come from PubChem BioAssay (NCI).

Molecules are shown by their SMILES. Where “and” joins values, the source holds several entries; their conditions need not be identical. Identical values can stand only once.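 48-hour exposure; five concentrations; linearly interpolated endpoints. At the GI50, growth is halved. TGI: total growth inhibition.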

Test systems include SNB-75 CNS; M14 melanoma; A498 renal; HCT-116 colon; A549 NSCLC; CAKI-1 renal; HOP-62 NSCLC; TK-10 renal; UACC-257 melanoma; HCC-2998 colon.
Common to all, as to assay: growth of human tumour cells (NCI), 48 h

For `Oc1cc(O)c2c(=S)cc(-c3ccc(Cl)cc3)oc2c1`, the GI50 in the assay with SNB-75 CNS was 2230 nM; in the assay on M14 melanoma it was 3220 nM; with A498 renal it was 1220 nM; with HCT-116 colon it was 2840 nM; in the assay with A549 NSCLC, 6580 nM; in the assay with CAKI-1 renal, 2950 nM. Also, the GI50 in the assay on HOP-62 NSCLC is 2030 nM; in the assay on TK-10 renal it was 4080 nM; in the assay on UACC-257 melanoma, 2750 nM; in the assay on HCC-2998 colon, 1700 nM. The TGI in the assay with SNB-75 CNS is 13800 nM; in the assay with M14 melanoma it was 14800 nM; with A498 renal it was 11700 nM; with HCT-116 colon it was 10400 nM; with A549 NSCLC it was 36800 nM; in the assay on CAKI-1 renal, 19100 nM. In addition, the TGI came out at 11200 nM with HOP-62 NSCLC, 19100 nM with TK-10 renal, 7960 nM in the assay with UACC-257 melanoma and 14500 nM in the assay with HCC-2998 colon.
With `CC1=C([Se]CC(OC(=O)[C@@H](CO)NC(=O)OC(C)(C)C)C(=O)NC(C)(C)C)C(=O)c2ccccc2C1=O` (some centres not stated), the GI50 with SNB-75 CNS is 1300 nM; in the assay with M14 melanoma, 1660 nM; in the assay on A498 renal, 3640 nM; with HCT-116 colon it was 1460 nM; in the assay on A549 NSCLC, 1810 nM; in the assay with CAKI-1 renal, 1760 nM. Also, the GI50 in the assay on HOP-62 NSCLC was 530 nM; with TK-10 renal, 1980 nM; with UACC-257 melanoma, 1740 nM; with HCC-2998 colon, 1820 nM. The TGI in the assay on SNB-75 CNS turned out to be 2600 nM; in the assay on M14 melanoma, 3040 nM; with A498 renal, 15200 nM; in the assay on HCT-116 colon, 2790 nM; in the assay on A549 NSCLC, 9440 nM; in the assay with CAKI-1 renal, 3390 nM. Further, the TGI with HOP-62 NSCLC was determined as 1860 nM; in the assay with TK-10 renal, 3440 nM; with UACC-257 melanoma, 3230 nM; with HCC-2998 colon, 3230 nM.
Consider `C[C@H]1CC[C@@H]2[C@@H](C)[C@H]3[C@H](C[C@H]4[C@@H]5CC=C6C[C@@H](O)CC[C@]6(C)[C@H]5C[C@H](O)[C@]34C)N2C1`, for which the TGI in the assay on SNB-75 CNS, with M14 melanoma, with A498 renal, in the assay on HCT-116 colon, in the assay on A549 NSCLC and in the assay on CAKI-1 renal was more than 100000 nM each time. For the same compound, the TGI in the assay on HOP-62 NSCLC, with TK-10 renal, in the assay with UACC-257 melanoma and in the assay on HCC-2998 colon was more than 100000 nM in each case.
As to `CCc1c(Cl)nc(Cl)nc1Cl`, the TGI in the assay on SNB-75 CNS is 4210 nM; in the assay on M14 melanoma, 990 nM; in the assay on A498 renal, 16800 nM; in the assay with HCT-116 colon it was 440 nM; in the assay with A549 NSCLC, 13700 nM; in the assay with CAKI-1 renal, 404 nM. The TGI with HOP-62 NSCLC was 5810 nM; in the assay with TK-10 renal it was 4770 nM; with UACC-257 melanoma it was 2790 nM; in the assay on HCC-2998 colon, 774 nM.
For `COc1cccc(C2C3=C(COC3=O)N(CCO)c3cc4c(cc32)OCCO4)c1` (configuration not stated), the GI50 in the assay on SNB-75 CNS was 72.2 nM; with M14 melanoma, 52 nM; in the assay on A498 renal, 26.4 nM; in the assay on HCT-116 colon, 152 nM; in the assay on A549 NSCLC it was 207 nM; with CAKI-1 renal, 145 nM. Besides, the GI50 in the assay on HOP-62 NSCLC was 287 nM; with TK-10 renal, 891 nM; in the assay with UACC-257 melanoma it was 46.7 nM; with HCC-2998 colon it was 95.7 nM. Besides, the TGI in the assay on SNB-75 CNS is 424 nM; in the assay on M14 melanoma, 190 nM; in the assay on A498 renal it was 276 nM; in the assay on HCT-116 colon, 3160 nM; in the assay on A549 NSCLC, more than 50000 nM; in the assay on CAKI-1 renal, more than 34800 nM. Moreover, the TGI with HOP-62 NSCLC was more than 50000 nM; with UACC-257 melanoma, more than 50000 nM; in the assay on HCC-2998 colon it was 242 nM.
Regarding `CC1OC(OC2CC(O)C3(CO)C4C(O)CC5(C)C(C6=CC(=O)OC6)CCC5(O)C4CCC3(O)C2)C(O)C(O)C1O` (configuration not stated), the TGI in the assay with SNB-75 CNS was 99 nM; with M14 melanoma, 78.4 nM; in the assay on A498 renal, 102 nM; in the assay on HCT-116 colon it was 20.9 nM; with A549 NSCLC, less than 13.8 nM; with CAKI-1 renal, 24 nM. In addition, the TGI is less than 14.6 nM in the assay on HOP-62 NSCLC, 32.3 nM in the assay on TK-10 renal, 105 nM in the assay on UACC-257 melanoma and 204 nM in the assay on HCC-2998 colon. In addition, the GI50 is 21.2 nM in the assay with M14 melanoma; less than 18.3 nM in the assay on A498 renal; less than 13.9 nM in the assay with HCT-116 colon; less than 10.9 nM in the assay with A549 NSCLC; less than 14.6 nM in the assay with CAKI-1 renal; less than 11.2 nM in the assay on HOP-62 NSCLC. For the same compound, the GI50 was less than 10.5 nM with TK-10 renal, 23.7 nM in the assay on UACC-257 melanoma and 60.6 nM with HCC-2998 colon.
With `COc1cc([C@@H]2c3cc4c(cc3[C@H](O)[C@H]3COC(=O)[C@H]23)OCO4)cc(OC)c1OC`, the GI50 with SNB-75 CNS was less than 5 nM; in the assay with M14 melanoma it was less than 5 nM; in the assay with A498 renal, less than 10 nM; with HCT-116 colon it was less than 10 nM; with A549 NSCLC, less than 5 nM; in the assay with CAKI-1 renal it was less than 5 nM. For the same compound, the GI50 in the assay on HOP-62 NSCLC, with TK-10 renal and in the assay with HCC-2998 colon was less than 5 nM throughout. The TGI with HCT-116 colon was 500 nM; in the assay on A549 NSCLC, > 100000 nM and 50000 nM; with HOP-62 NSCLC, > 100000 nM and 50000 nM and > 75000 nM; with TK-10 renal, > 100000 nM and 50000 nM; in the assay with UACC-257 melanoma, > 100000 nM and 50000 nM.
For `O=C(CCCc1ccccn1)c1ccccc1`, the TGI in the assay with SNB-75 CNS, in the assay with M14 melanoma, in the assay on A498 renal, with HCT-116 colon, in the assay on A549 NSCLC and in the assay with CAKI-1 renal was more than 100000 nM in each case. The TGI in the assay with HOP-62 NSCLC, in the assay with TK-10 renal, with UACC-257 melanoma and with HCC-2998 colon was more than 100000 nM in each case.
In the case of `CCOC(=O)C1=C(C)NC2SC(=O)/C(=C\c3ccccc3)N2C1c1ccccc1` (configuration not stated), the GI50 with SNB-75 CNS is more than 100000 nM; in the assay with M14 melanoma, more than 100000 nM; in the assay with A498 renal it was more than 100000 nM; in the assay on HCT-116 colon, 67500 nM; with A549 NSCLC, more than 100000 nM; with CAKI-1 renal it was more than 100000 nM. The GI50 in the assay on HOP-62 NSCLC was more than 100000 nM; with TK-10 renal, 56200 nM; in the assay on UACC-257 melanoma, more than 100000 nM; in the assay on HCC-2998 colon it was more than 100000 nM. The TGI in the assay with SNB-75 CNS, with M14 melanoma, in the assay on A498 renal, in the assay on HCT-116 colon, in the assay with A549 NSCLC and in the assay on CAKI-1 renal was more than 100000 nM each time. Also, the TGI in the assay on HOP-62 NSCLC, in the assay on TK-10 renal, in the assay on UACC-257 melanoma and with HCC-2998 colon was more than 100000 nM throughout.
